Reference: article PMC7796107, “Efficient Separation of Phytochemicals from Muehlenbeckia volcanica (Benth.) Endl. by Polarity-Stepwise Elution Counter-Current Chromatography and Their Antioxidant, Antiglycation, and Aldose Reductase Inhibition Potentials” (Molecules, 2021)
Read-outs that look alike come from different tables or passages of the source. Marks after values point to notes of the source that are not given here.

Tests used:
[1] = molecular target: fructose-mediated bovine serum albumin (BSA) glycation (Bos taurus, UniProt P02769); experiment: Antiglycation assay, fructose-mediated BSA glycation model; conditions: for inhibition at 12.5 µM / inhibition at 25 µM / inhibition at 50 µM / inhibition at 100 µM: read-out: Antiglycation activity, inhibition (%)
Procedure: The antiglycation assay was carried out using a fructose-mediated BSA glycation model as reported previously [43] with minor modifications. […] Then, 200 µL of the reaction solution from each sample was pipetted to black 96-well plates to determine the fluorescent AGEs using a microplate fluorescence reader (BIOTEK-FLx800, Winooski, VT, USA) at excitation and emission wavelengths of 360 ± 20 nm and 460 ± 20 nm, respectively. Aminoguanidine [25], a synthetic antiglycation agent, was used as a positive control with final concentrations of 200 µg/mL to 800 µg/mL or 1 mM to 4 mM.

diabetic rats = conditions: cited from earlier work
[2] = cited from earlier work
[3] = DPPH radical scavenging assay; assay type: biochemical; conditions: Trolox equivalent antioxidant capacity
Procedure: (§1) The antioxidant activities of the 70% methanol extract of M. volcanica and the separated compounds were evaluated using DPPH, ABTS, and ORAC assays. The results were expressed as Trolox equivalent antioxidant capacity (TEAC, µg Trolox/µg extract or µM Trolox/µM compound), which were calculated with the equations obtained from the calibration curves of Trolox standards (final concentrations) versus their DPPH and ABTS radical inhibition (%) and the net AUC value (ORAC assay).
The DPPH radical scavenging assay was carried out using an EL800 microplate reader (Bio-Tek Instruments, Winooski, VT, USA). Briefly, 180 μL of freshly prepared DPPH solution (0.32 mM in methanol) was mixed with 20 μL of sample (dissolved in methanol, extract 250 µg/mL; compounds 62.5–1000 µM) in a 96-well plate. The mixture was incubated for 20 min in the dark at 25 °C, and then, the absorbance was measured at […]. […] Results are expressed in µg Trolox equivalents/µg extract or µM Trolox equivalents/µM compound. The DPPH radical scavenging activity (%) is calculated using Equation (1):(1) %inhibition=1−Asample−Ablank1/Acontrol−Ablank2×100%, where Asample is the absorbance of DPPH solution with a sample, Ablank1 is the absorbance of the test sample without DPPH, Acontrol is the absorbance of DPPH solution without a sample, Ablank2 is the absorbance of methanol, without DPPH or a sample.

[4] = system: streptozotocin-induced diabetic cats; conditions: cited from earlier work
[5] = system: streptozotocin-induced diabetic rats; conditions: cited from earlier work
[6] = ORAC (oxygen radical absorbance capacity) assay; assay type: biochemical; conditions: Trolox equivalent antioxidant capacity, ORAC assay (peroxyl radicals)
Procedure: as §1
The ORAC assay was carried out using a Fluoroskan Ascent FL microplate reader (Thermo, Waltham, MA, USA) using the method described previously with minor modifications. Antioxidants can scavenge the peroxyl radicals generated by AAPH, which prevent the degradation of the fluorescein and, therefore, prevent the loss of the fluorescence of fluorescein. Briefly, fluorescein sodium salt (117 nM) and AAPH (40 mM) were freshly prepared in 0.1 M phosphate-buffered saline (PBS, pH 7.4). For reaction, 120 µL of fluorescein sodium salt (117 nM) and 20 µL of sample (dissolved in methanol, extract 10–20 µg/mL; compounds 10–160 µM) were mixed in a black 96-well plate and pre-incubated for 15 min at 37 °C. Next, 60 µL of AAPH (40 mM) was added, and the fluorescence was measured 100 times (interval 1 min) at excitation and emission wavelengths of 485 nm and 538 nm, respectively, by the microplate reader maintained at 37 °C. […] The relative ORAC values are expressed in µg Trolox equivalents/µg extract or µM Trolox equivalents/µM compound.

aldose reductase (AR) = molecular target: T1, aldose reductase (AR) (Rattus norvegicus, UniProt P07943); experiment: Aldose reductase (AR) inhibition assay, rat lens homogenate; assay type: biochemical, Sprague–Dawley rats; conditions: for inhibition at 3.125 µM / inhibition at 6.25 µM / inhibition at 12.5 µM / inhibition at 25 µM: read-out: AR inhibition activity, inhibition (%)
T1 construct: centrifuged at 10,000× g for 30 min at 4 °C (Centrifuge 5417R, Eppendorf, Germany) to obtain AR homogenate (in the supernatant); from tissue; host or cells: eye lenses of Sprague–Dawley rats
Procedure: For the extraction of AR, the rat eye lenses were grounded in a precooled mortar (−70 °C) and extracted using 0.1 M PBS (pH 6.2; about 0.5 mL of PBS per two frozen rat lenses).
A 96-well plate-based AR inhibition assay was used in this study, which was modified from a previous method. In principle, the rate of the absorbance decrease of NADPH at 340 nm (OD340 nm) was used for evaluation of the AR inhibitory activity. […] Then, as soon as 20 μL of the substrate (DL-glyceraldehyde dimer, 25 mM in 0.1 M PBS, pH 7.0) was added, the absorbance of the reaction solution at 340 nm was measured for 6 min using an Epoch microplate spectrophotometer (BioTek Instruments, Highland Park, IL, USA). […] The samples were first prepared at high concentrations in DMSO or in a mixture of DMSO and water and then diluted using water shortly before the experiment. The concentration of DMSO was kept within 0.2% (v/v) in the reaction system. […] The AR inhibition ratio (%) for the samples was calculated using Equation (4):(4) %inhibition=1−Slopes−Slopeb/Slopec−Slopeb×100%, where Slopec, Slopes, and Slopeb are the slopes obtained from the OD340 nm versus the reaction time (min) dotted lines of the control group (without sample), sample group (with enzyme and sample), and blank group (without enzyme or sample), respectively. |Slope| is the absolute value of Slope.

[7] = ABTS radical scavenging assay; assay type: biochemical; conditions: Trolox equivalent antioxidant capacity
Procedure: as §1
The ABTS radical scavenging assay was carried out using the same EL800 microplate reader. Briefly, 0.2 mM of ABTS diammonium salt was prepared in 3.5 mM of potassium persulfate aqueous solution, and the mixture solution was then diluted 10 times using distilled water. The diluted solution was allowed to stand for 24 h in the dark at room temperature (about 25 °C) to produce ABTS radical cations (ABTS^+). For reaction, 290 μL of ABTS^+ solution was mixed with 10 μL of sample (dissolved in methanol, extract 62.5–125 µg/mL; compounds 20–250 µM) in a 96-well plate, and the mixture solution was allowed to react for 10 min at 25 °C in the dark. Then, the absorbance was measured at 750 nm. […] Results are expressed in µg Trolox equivalents/µg extract or µM Trolox equivalents/µM compound. The ABTS radical scavenging activity (%) is calculated using Equation (1) where Asample is the absorbance of ABTS^+ solution with a sample, Ablank1 is the absorbance of the test sample without ABTS^+, Acontrol is the absorbance of ABTS^+ solution without a sample, Ablank2 is the absorbance of buffer, without ABTS^+ or a sample.

human erythrocytes = system: human erythrocytes; design: method as in earlier work; conditions: high glucose conditions; cited from earlier work

Sequence of fructose-mediated bovine serum albumin (BSA) glycation (P02769 25-607): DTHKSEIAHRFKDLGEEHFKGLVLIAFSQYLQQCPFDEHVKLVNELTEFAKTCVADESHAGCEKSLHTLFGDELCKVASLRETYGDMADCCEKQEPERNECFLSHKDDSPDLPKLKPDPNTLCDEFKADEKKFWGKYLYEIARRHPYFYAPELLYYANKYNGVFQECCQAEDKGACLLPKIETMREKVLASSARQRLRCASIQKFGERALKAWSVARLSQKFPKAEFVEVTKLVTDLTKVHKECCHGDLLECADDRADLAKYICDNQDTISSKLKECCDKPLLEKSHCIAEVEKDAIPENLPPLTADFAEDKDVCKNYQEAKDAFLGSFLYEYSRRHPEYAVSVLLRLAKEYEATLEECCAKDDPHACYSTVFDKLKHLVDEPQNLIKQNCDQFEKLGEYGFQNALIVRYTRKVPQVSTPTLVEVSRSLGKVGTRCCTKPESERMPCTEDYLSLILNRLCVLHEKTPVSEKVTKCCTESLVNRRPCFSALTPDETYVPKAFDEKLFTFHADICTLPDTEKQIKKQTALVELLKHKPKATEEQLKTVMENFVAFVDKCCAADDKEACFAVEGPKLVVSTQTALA

Row | SMILES | inhibition at 12.5 µM [1] [%] | inhibition at 25 µM [1] [%] | inhibition at 50 µM [1] [%] | inhibition at 100 µM [1] [%] | Progression of lens opacification (diabetic rats) | Inhibition of AGEs by trapping methylglyoxal [2] | TEAC, DPPH [3] | Impaired cardiac function [4] | Effect on oxidative stress [5] | TEAC, ORAC [6] | TEAC, ABTS [7] | also measured
1 | O=c1c(O)c(-c2ccc(O)c(O)c2)oc2cc(O)cc(O)c12 [Quercetin (10), quercetin] | 19.4 ± 1.76 | 35.4 ± 0.92 | 67.47 ± 0.24 | 84.3 ± 1.39 | delay the progression of lens opacification | inhibit AGEs by trapping methylglyoxal | 2.14 ± 0.03 ^b µM trolox/µM Compound | partially reverse the impaired cardiac function | ameliorate the oxidative stress | 6.93 ± 0.30 ^a µM trolox/µM Compound | 3.61 ± 0.03 ^a µM trolox/µM Compound | inhibition at 3.125 µM (aldose reductase (AR)): 12.9 ± 2.11%; inhibition at 6.25 µM (aldose reductase (AR)): 26.3 ± 1.21%; inhibition at 12.5 µM (aldose reductase (AR)): 43 ± 3.02%; inhibition at 25 µM (aldose reductase (AR)): 60 ± 1.21%; TEAC, ABTS ([7]; listed as quercetin): 3.61 µM trolox/µM Compound
2 | C[C@@H]1O[C@@H](OC[C@H]2O[C@@H](Oc3c(-c4ccc(O)c(O)c4)oc4cc(O)cc(O)c4c3=O)[C@H](O)[C@@H](O)[C@@H]2O)[C@H](O)[C@H](O)[C@H]1O [Rutin (8), rutin] | 30.8 ± 1.1 | 61.7 ± 2.49 | 81.82 ± 0.65 | 91.51 ± 0.4 | delay the progression of lens opacification | inhibit AGEs by trapping methylglyoxal | 0.90 ± 0.09 ^e µM trolox/µM Compound | partially reverse the impaired cardiac function | ameliorate the oxidative stress | 5.77 ± 0.08 ^b µM trolox/µM Compound | 1.12 ± 0.04 ^d µM trolox/µM Compound | IC50 [1]: 20.1 ± 0.23 µM; Accumulation of sorbitol in human erythrocytes (human erythrocytes): suppress the accumulation of sorbitol; inhibition at 3.125 µM (aldose reductase (AR); 3.125 µM): 46.4 ± 1.21%; inhibition at 6.25 µM (aldose reductase (AR); 6.25 µM): 62.79 ± 0.3%; inhibition at 12.5 µM (aldose reductase (AR); 12.5 µM): 75.2 ± 0.9%; inhibition at 25 µM (aldose reductase (AR); 25 µM): 84.5 ± 1.51%; IC50 (aldose reductase (AR); rat lens AR homogenate): 3.51 ± 0.12 µM
